Earlier results on one compound are cited in paper PMC4610172, “5-Arylaminouracil Derivatives as Potential Dual-Action Agents” (Acta Naturae, 2015).

For this series, the system named is MS-115 strain with multiple-drug resistance. Particulars: MS-115 resistant to isoniazid, rifampicin, streptomycin, ethambutol, pyrazinamide; cited from earlier work.

For the compound `CCCCOc1ccc(Nc2cn(C3C=CC(O)C3)c(=O)n(C3C=CC(O)C3)c2=O)cc1` (stereo not shown) [Compound 19], the “Activity against MS-115 strain relative to sensitive H37Rv laboratory strain” value was “higher activity against the MS-115 strain”.
